Measurements reported in paper doi:10.1101/2021.03.09.434688v1 (biorxiv, 2021).

Molecular target: T1, PsnB (Plesiocystis pacifica, UniProt A6G4D7)
T1 sequence (A6G4D7 1-314): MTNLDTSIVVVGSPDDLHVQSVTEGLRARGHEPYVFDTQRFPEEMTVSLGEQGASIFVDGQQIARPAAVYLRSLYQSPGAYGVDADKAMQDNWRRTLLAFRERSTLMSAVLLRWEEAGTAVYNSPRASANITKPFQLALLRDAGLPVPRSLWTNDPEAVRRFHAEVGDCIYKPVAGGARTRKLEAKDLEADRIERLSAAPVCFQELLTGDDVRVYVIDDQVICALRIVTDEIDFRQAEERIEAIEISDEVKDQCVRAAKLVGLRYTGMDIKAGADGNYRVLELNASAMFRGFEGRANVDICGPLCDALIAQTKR
T1 sequence (A6GH40 14-38 partner): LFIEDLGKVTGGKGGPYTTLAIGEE
Experiment: X-ray crystal structure of the complex
Assay type: binding
Conditions: complex with minimal precursor PsnA2_14-38 and Mg; nucleotide 5 mM; ATP site

| X-ray crystal structure of the complex | Structure (SMILES) |
| --- | --- |
| PsnB-MP-AMPPNP (7DRN) | Nc1ncnc2c1ncn2[C@@H]1O[C@H](COP(=O)(O)OP(=O)(O)NP(=O)(O)O)[C@@H](O)[C@H]1O [AMPPNP] |
| For PsnB-MP-ADP (7DRM) | Nc1ncnc2c1ncn2[C@@H]1O[C@H](COP(=O)(O)OP(=O)(O)O)[C@@H](O)[C@H]1O [ADP] |
